According to paper PMC4976335, “Miniaturizing VEGF: Peptides mimicking the discontinuous VEGF receptor-binding site modulate the angiogenic response” (Scientific Reports, 2016):
Bridges are numbered along the chain shown (N, C = ends). [ ]: non-standard residue; d: D form. isopeptide = not defined here; Ahp = NCCCCCCC(=O)O

Legend:
[1] = system: human umbilical vein endothelial cells (HUVECs); assay: HUVEC proliferation assay (cell counting), with or without SU5614; assay type: cell-based; conditions: SU5614 (10 μM) alone, 0 ng/mL peptide, 72 h
Procedure: As the activation of ERK1/2 pathway in ECs leads to DNA synthesis and cell proliferation, we evaluated whether EP3, EP5 and EP6 peptides were able to stimulate cell growth. A proliferation assay was performed on human umbilical vein endothelial cells (HUVECs). Cells in starvation medium were incubated with increasing concentrations (0.5, 5 and 50 ng/mL) of the selected peptides and VEGF, and cell number was counted after 72 h. […] Cell survival was evaluated by MTT assay in PAEC-VEGFR2 following stimulation with EP6 and equimolar concentration with control peptides for 48 h.
The same proliferation assay was repeated in HUVEC in presence of the tyrosine kinase inhibitor SU5614 (Table 1). In the presence of the inhibitor, the proliferative effect of the EP peptides was suppressed, confirming that EP-induced proliferation was correlated to VEGFR2 phosphorylation.
Human Umbilical Vein Endothelial Cells (HUVECs) were purchased from Lonza (Basel, Switzerland). All experiments were performed on low passage cell cultures. […]
HUVECs were plated at density of 1500 cells/well in 96-well gelatin-coated microplates. […] Cell proliferation was evaluated as number of cells counted per well[35].

VEGFR2 [2] = assay: Antagonism of VEGF-stimulated VEGFR2 phosphorylation, western blot in PAEC overexpressing VEGFR2; assay type: cell-based
VEGFR2 [3] = assay: VEGFR2 auto-phosphorylation (agonism), anti-phospho-Tyr western blot in PAEC overexpressing VEGFR2; assay type: cell-based
C57 black mice = assay: In vivo Matrigel plug angiogenesis assay; conditions: 500 ng/plug, subcutaneous Matrigel, 10 days, implants inspected and haemoglobin content measured (Fig. 7B)
Procedure: Figure 7 In vitro and in vivo angiogenic properties of EP peptides. (A) HUVECs were plated onto a layer of basement membrane matrix (Matrigel) and incubated at 37 °C for 18 h in the presence of EP3, EP5, EP6 and VEGF (50 ng/mL). After treatment, photomicrographs of tubular structures (Top) were quantified as angiogenic index, calculated as the number of complete circles counted/field by microscope image analysis (Bottom). *p < 0.05 vs basal control. (B) In vivo Matrigel angiogenesis assay was performed by injecting Matrigel solution containing 500 ng of the selected EP peptides into the dorsal midline region of C57 black mice. […] After 10 days Matrigel implants were recovered (Top) and analyzed for their haemoglobin content (bottom). *p < 0.05 and **p < 0.01 vs Matrigel alone.
The pro-angiogenic activity of EP peptides was evaluated by an in vivo test, using Matrigel plugs loaded with EP3, EP5 or EP6 peptides or VEGF (500 ng/plug). […] The hemoglobin content of explanted plugs was measured by a spectrophotometric assay (Fig. 7B, Bottom).
In vivo Matrigel angiogenesis assay was performed as previously described. […] Plugs were resuspended in 1 ml of Drabkin’s reagent for 18 h on ice and haemoglobin concentration was determined by absorbance at 540 nm and compared with a standard curve (Sigma-Aldrich, Milan, Italy).

[4] = target: T1, second domain of VEGFR1 (VEGFR1D2) (UniProt P17948 129-229); assay: NMR titration; 2D [15N,1H] HSQC chemical shift perturbation; 110 μM 15N-labeled VEGFR1D2, EP6 added from 27.5 to 550 μM; 20 mM Tris-HCl pH 7.5, 0.02% sodium azide, 10% 2H2O; 298 K; single-site fit, overall apparent KD as mean over the residues of the binding site; conditions: both partners purified
T1 construct: VEGFR1 (vascular endothelial growth factor receptor 1), second domain; The shifts were mapped onto the NMR structure PDB 1QSV of VEGFR1D2; also called domain 2 of VEGFR1; source: recombinant; 15N-labeled for the HSQC titration
T1 sequence (P17948 129-229): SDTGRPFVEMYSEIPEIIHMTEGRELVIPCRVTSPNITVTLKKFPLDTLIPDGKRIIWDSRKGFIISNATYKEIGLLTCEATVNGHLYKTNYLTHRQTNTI

Molecule: Cc1cc(C)c(/C=C2\C(=O)Nc3ccc(Cl)cc32)[nH]1 [SU5614]
- HUVEC proliferation, cells counted/well [1]: 63.5 ± 8.7 cells counted/well
- antagonism of VEGF-stimulated VEGFR2 phosphorylation (in words) (VEGFR2 [2]; EP/control peptides 50 ng/mL 15 min, then VEGF 50 ng/mL 15 min, SU5614 10 μM (Fig. 2B)): inhibited
- VEGFR2 phosphorylation after VEGF, ∆ of fold increase respect to VEGF induced response (VEGFR2 [2]; peptide 50 ng/mL pretreatment 15 min, then VEGF 50 ng/mL for additional 15 min, serum deprivation, SU5614 10 μM, western blot quantification, representative of three experiments): 0.15 ± 0.05 ∆ of fold increase respect to VEGF induced response

Molecule: Vascular Endothelial Growth Factor [VEGF]
- VEGFR2 phosphorylation, fold increase respect to Ctr (VEGFR2 [3]; 50 ng/mL each, 15 min at 37 °C, PAEC overexpressing VEGFR2, western blot quantification, anti-phospho-Tyr, gels representative of three experiments): 6.5 ± 1.3 fold increase respect to Ctr
- VEGFR2 phosphorylation induced (in words) (VEGFR2 [3]; 50 ng/mL, 15 min, PAEC overexpressing VEGFR2 (Fig. 2A)): induced VEGFR2 phosphorylation
- blood vessel formation / angiogenesis in Matrigel plugs (in words) (C57 black mice): blood vessel formation was observed

B1: EP6 peptide (mini-VEGF; AcHx ligated to Hn6) (peptide)
chain: Ac-EKFMDVYQLKYKGIC[Ahp]QIMRIKPHQGQHIGETS-NH2
modifications: bridge 1-15 via isopeptide; reading uncertain; also: two peptides Hx (1-14, C-terminal amide after Ile14) and Hn (15-33) joined by isopeptide bond
- Kd [4]: 139 µM
